Measured values from patent US20050266509A1, “Interaction of NMDA receptor with protein tyrosine phosphatase” (AGY Therapeutics, Inc., priority 2003, published 2005).

Legend:
[1] = target: T1, CD45 (Homo sapiens, UniProt P08575); assay: FRET phosphatase assay, CD45; assay type: biochemical
T1 sequence (P08575 26-1306): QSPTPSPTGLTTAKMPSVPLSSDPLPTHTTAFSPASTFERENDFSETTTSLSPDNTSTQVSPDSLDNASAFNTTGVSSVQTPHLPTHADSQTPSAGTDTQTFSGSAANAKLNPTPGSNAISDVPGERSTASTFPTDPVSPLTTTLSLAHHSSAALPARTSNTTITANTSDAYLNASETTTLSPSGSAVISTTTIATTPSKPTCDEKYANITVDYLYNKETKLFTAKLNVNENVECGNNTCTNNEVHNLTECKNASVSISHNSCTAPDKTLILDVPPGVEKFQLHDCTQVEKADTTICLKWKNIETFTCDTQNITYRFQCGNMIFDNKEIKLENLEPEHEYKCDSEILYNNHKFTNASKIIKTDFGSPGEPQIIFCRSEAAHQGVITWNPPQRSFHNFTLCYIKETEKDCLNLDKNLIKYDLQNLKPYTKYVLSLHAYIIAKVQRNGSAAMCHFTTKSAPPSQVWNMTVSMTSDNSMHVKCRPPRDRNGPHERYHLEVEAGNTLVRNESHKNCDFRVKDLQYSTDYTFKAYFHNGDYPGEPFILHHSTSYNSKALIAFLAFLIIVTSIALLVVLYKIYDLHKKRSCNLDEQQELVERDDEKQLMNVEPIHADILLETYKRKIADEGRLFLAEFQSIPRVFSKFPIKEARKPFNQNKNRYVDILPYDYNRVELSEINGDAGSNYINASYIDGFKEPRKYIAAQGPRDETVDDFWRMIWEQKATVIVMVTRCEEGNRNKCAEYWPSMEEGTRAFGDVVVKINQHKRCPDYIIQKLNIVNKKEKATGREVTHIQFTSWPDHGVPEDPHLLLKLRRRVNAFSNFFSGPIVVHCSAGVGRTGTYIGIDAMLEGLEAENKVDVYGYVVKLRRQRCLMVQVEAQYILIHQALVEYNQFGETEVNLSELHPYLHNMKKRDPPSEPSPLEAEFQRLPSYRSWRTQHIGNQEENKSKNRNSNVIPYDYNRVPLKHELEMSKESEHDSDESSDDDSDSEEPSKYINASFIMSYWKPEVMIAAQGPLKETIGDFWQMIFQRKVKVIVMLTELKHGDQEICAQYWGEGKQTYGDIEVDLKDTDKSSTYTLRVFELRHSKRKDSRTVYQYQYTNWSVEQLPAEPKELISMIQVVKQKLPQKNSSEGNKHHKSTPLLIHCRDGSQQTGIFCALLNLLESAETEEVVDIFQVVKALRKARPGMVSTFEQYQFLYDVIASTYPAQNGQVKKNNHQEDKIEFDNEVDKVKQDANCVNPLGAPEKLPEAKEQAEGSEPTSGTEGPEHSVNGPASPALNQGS
Protocol: (§1) For the enzyme activity assay, 2.5 μl of compound, 12.5 μl of enzyme, and 10 μl of substrate (separated by air gaps) are added to columns 3 through 24 by the Biomek FX in a single dispense. After the dispense, the tips are washed with DMSO and water for re-use between each quadrant. Once the assay plates are set up, they are incubated at 27° C. for 45 minutes. Then 20 μl of detection buffer is added to stop the reaction and to allow the Europium antibody (Eu-Ab) and streptavidin-APC to bind to the substrate.
(§2) The plates are then placed in the plate reader, an Analyst HT. Excitation light at 360 nm is used to excite the Europium antibody with an emission at 620 nm. Fluorescence resonance energy transfer (FRET) from Eu-Ab to APC will only occur when they are in close proximity. Therefore, when an APC emission is observed at 665 nm the enzyme has been inhibited from removing the phosphate group from the substrate. The FRET assay is time-resolved (TR), where there is a delay between excitation light and collection of emission signals. This reduces the amount of stray light created by short-lived fluorescing molecules. The Analyst HT measures APC and Europium emission signals and calculates the ratio between the two intensities. Typical intensities for the Europium is ˜2000 and APC is ˜600.
(§3) The following compounds were tested by FRET against the listed phosphatases, and the IC50 were obtained. […]

[2] = target: PTPB (Homo sapiens, UniProt P23467); assay: FRET phosphatase assay, PTPB; assay type: biochemical
Protocol: as §1, §2, §3

Chain of PTPB (P23467 1643-1997 limits assumed): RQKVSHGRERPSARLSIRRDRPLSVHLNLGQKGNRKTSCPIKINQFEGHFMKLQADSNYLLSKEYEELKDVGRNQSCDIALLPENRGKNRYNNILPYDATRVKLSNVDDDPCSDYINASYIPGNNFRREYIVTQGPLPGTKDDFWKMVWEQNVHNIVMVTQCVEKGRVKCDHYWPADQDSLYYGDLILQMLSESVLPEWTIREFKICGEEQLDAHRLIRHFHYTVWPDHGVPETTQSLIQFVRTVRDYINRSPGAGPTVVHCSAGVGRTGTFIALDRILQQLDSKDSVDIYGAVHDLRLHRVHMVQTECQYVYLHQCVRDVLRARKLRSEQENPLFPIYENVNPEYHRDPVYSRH

## CCOC(=O)C(=CC1=C/C(=C/N(C)C)C(=O)O1)C(=O)OCC [AGY- 0046293]
[1]
  IC50: 90 µM
[2]
  IC50: 23.2 µM
